The text below walks through data of patent US9890166B2, “Imidazopyrrolidine derivatives and their use in the treatment of disease” (NOVARTIS AG, priority 2013, dated 2018).

The structures appear in SMILES notation. pIC50: −log10 of the molar value.

Test [1] deals with BRD4 (His-Brd4(44-477)) (Homo sapiens (Human), UniProt O60885). The test is described as follows: TR-FRET in-vitro binding assay for BRD4. The settings on record: single determination or n ≧ 2 independent determinations, read-out: Biochemical IC50 BRD4. The method in brief:
(§1)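 His-tagged BRD2, BRD3 and BRD4 fragments tested by TR-FRET at 8 compound concentrations, with DMSO stocks at 10 mM. Read on EnVision after 35 min incubation at 30° C.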

Test [2] has as its target nuclear BRD4-NUT foci in HCC2494 NUT midline carcinoma cells (Homo sapiens, UniProt O60885). The test is described as follows: cell-based.
The target in test [3] is BRD3 (His-Brd3(20-477)) (Homo sapiens (Human), UniProt Q15059). As to the kind of experiment: TR-FRET in-vitro binding assay for BRD3. The settings on record: single determination or n ≧ 2 independent determinations, read-out: Biochemical IC50 BRD3. The method in brief: as §1
In general terms: In TR-FRET formats the signal depends on donor and acceptor labels being close together.

Test [4] has as its system K-562 cells. The test is described as follows: Cell growth inhibition assay (CellTiter-Glo), K-562.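 On all read-outs here: cellular ATP measured by luminescence after 4 days of exposure, 3-fold dilution series from 10 µM, DMSO vehicle-treated cells define 100%, cell-free medium wells −100%.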 Conditions: for GI50: Homo sapiens, K562, read-out: K-562 GI50; for K-562 TGI: K-562 cells, total growth inhibition, CellTiter-Glo.
Test [5] has as its system THP-1 cells. The test is described as follows: Cell growth inhibition assay (CellTiter-Glo), THP-1.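 On all read-outs here: viability read as cellular ATP luminescence after 4 days, 3-fold dilution series from 10 µM, DMSO vehicle-treated cells taken as 100%, cell-free medium wells as −100%.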 Conditions: for GI50: Homo sapiens, THP-1, read-out: THP-1 GI50; for THP-1 TGI: THP-1 cells, total growth inhibition, CellTiter-Glo. (In ATP-based viability assays light output follows the ATP content of the culture.)
The target in test [6] is BRD2 (His-Brd2(60-472)) (Homo sapiens (Human), UniProt P25440). The test is described as follows: TR-FRET in-vitro binding assay for BRD2. The settings on record: single determination or n ≧ 2 independent determinations, read-out: Biochemical IC50 BRD2. The method in brief: as §1
The test system of test [7] is MV-4-11 cells. As to the kind of experiment: Cell growth inhibition assay (CellTiter-Glo), MV-4-11.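 On all read-outs here: cellular ATP luminescence after 4 days, 3-fold dilution series from 10 µM top dose, vehicle (0.1% DMSO) set to 100%, cell-free medium set to −100%, day 0 corrected.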 Conditions: for GI50: Homo sapiens, MV4-11, read-out: MV-4-11 GI50; for MV-4-11 TGI: MV-4-11 cells, total growth inhibition, CellTiter-Glo.
For test [8], the target named is CREBBP bromodomain (His-CREBBP(1081-1197)) (Homo sapiens (Human), UniProt Q92793). As to the kind of experiment: AlphaScreen in-vitro binding assay for CREBBP. The settings on record: single determination or n ≧ 2 independent determinations, read-out: Biochemical IC50 CREBBP. The method in brief: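 Detection used nickel-chelate acceptor plus streptavidin donor AlphaScreen beads, 1 h room temperature. Percent inhibition fitted by non-linear regression to IC50.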
A general note: In Alpha technology, singlet oxygen from a donor bead excites a nearby acceptor bead.

Chain of BRD2 (His-Brd2(60-472)) (P25440 60-472): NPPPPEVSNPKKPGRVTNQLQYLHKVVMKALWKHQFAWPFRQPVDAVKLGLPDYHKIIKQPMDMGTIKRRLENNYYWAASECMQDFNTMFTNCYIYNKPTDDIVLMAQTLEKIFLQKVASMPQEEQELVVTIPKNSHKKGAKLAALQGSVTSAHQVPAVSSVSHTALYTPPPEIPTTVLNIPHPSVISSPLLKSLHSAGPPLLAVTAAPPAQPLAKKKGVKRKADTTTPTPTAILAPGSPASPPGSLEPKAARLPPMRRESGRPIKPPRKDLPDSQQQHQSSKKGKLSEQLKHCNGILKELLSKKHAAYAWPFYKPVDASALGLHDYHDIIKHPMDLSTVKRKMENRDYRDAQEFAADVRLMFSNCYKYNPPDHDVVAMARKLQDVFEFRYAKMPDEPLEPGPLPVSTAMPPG
Chain of CREBBP bromodomain (His-CREBBP(1081-1197)) (Q92793 1081-1197): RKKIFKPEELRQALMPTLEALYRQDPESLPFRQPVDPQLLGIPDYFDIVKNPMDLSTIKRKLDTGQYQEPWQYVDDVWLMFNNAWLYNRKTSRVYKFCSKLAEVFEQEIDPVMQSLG
Chain of BRD3 (His-Brd3(20-477)) (Q15059 20-477): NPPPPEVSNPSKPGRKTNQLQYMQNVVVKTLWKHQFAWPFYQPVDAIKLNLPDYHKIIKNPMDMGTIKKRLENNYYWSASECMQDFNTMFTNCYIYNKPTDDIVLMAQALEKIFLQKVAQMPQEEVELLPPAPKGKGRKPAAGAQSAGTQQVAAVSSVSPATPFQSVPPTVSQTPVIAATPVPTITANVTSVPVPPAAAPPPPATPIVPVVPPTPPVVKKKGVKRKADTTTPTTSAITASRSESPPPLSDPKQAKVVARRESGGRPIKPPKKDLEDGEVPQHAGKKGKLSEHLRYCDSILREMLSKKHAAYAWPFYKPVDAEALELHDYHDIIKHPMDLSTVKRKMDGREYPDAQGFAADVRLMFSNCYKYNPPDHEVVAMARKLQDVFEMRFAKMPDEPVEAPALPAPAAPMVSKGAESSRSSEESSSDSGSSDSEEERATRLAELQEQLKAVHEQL

For orientation: pIC50 means the IC50 on a negative log10 scale, so that one unit is a factor of ten. As for `CC(C)n1c(-c2cnoc2)nc2c1C(c1ccc(Cl)cc1)N(c1ccc(=O)n(C)c1)C2=O` (stereo not shown) [Example 19, 6-(4-chlorophenyl)-1-isopropyl-2-(isoxazol-4-yl)-5-(1-methyl-6-oxo-1,6-dihydropyridin-3-yl)-5,6-dihydropyrrolo[3,4-d]imidazol-4(1H)-one], the values for the pIC50 in test [1] and in test [2] were 6.66 and less than 5.00, respectively.
What is called GI50 is the concentration at which growth is held to half of that of the control. In the case of `Cc1noc(C)c1-c1nc2c(n1C(C)C)C(c1ccc(Cl)cc1)N(c1cc(C)c(=O)n(C)c1)C2=O` (stereo not shown) [Example 27, 6-(4-chlorophenyl)-5-(1,5-dimethyl-6-oxo-1,6-dihydropyridin-3-yl)-2-(3,5-dimethylisoxazol-4-yl)-1-isopropyl-5,6-dihydropyrrolo[3,4-d]imidazol-4(1H)-one], the pIC50 in test [3] was 7.02; in test [6] it was 6.85; in test [1], 6.92; in test [2], 6.55. For the same compound, the GI50 in test [4] came to 0.861 µM; in test [5], 0.195 µM; in test [7] it was 0.0827 µM. Also, the “K-562 TGI” value in test [4] was greater than 10 µM. Besides, the “THP-1 TGI” value in test [5] was 0.433 µM. For the same compound, the “MV-4-11 TGI” value in test [7] was 0.142 µM.
Turning to `Cc1cc(N2C(=O)c3c(nc(C)n3C3CC3)C2c2ccc(Cl)cc2)cn2c(C)nnc12` (stereo not shown) [Example 115, 6-(4-chlorophenyl)-3-cyclopropyl-5-(3,8-dimethyl-[1,2,4]triazolo[4,3-a]pyridin-6-yl)-2-methyl-5,6-dihydropyrrolo[3,4-d]imidazol-4(3H)-one], the pIC50 in test [3] is 7.18; in test [6], 7.17; in test [1] it was 7.32; in test [2], 7.69. For the same compound, the GI50 in test [4] was 0.102 µM; in test [5], 0.0234 µM; in test [7] it was 0.0103 µM. The “K-562 TGI” value in test [4] was greater than 10 µM. In addition, the “THP-1 TGI” value in test [5] is 0.0581 µM. In addition, in test [7], the “MV-4-11 TGI” value stood at 0.0177 µM.
Take `COc1ccc(-c2nc3c([nH]2)C(c2ccc(Cl)cc2)N(c2cc(OC)c4nnc(C)n4c2)C3=O)cn1` (stereo not shown) [Example 125, 6-(4-chlorophenyl)-5-(8-methoxy-3-methyl-[1,2,4]triazolo[4,3-a]pyridin-6-yl)-2-(6-methoxypyridin-3-yl)-5,6-dihydropyrrolo[3,4-d]imidazol-4(1H)-one]: the GI50 in test [4] was 5.29 µM; in test [5], 2.14 µM; in test [7], 0.809 µM. In addition, in test [4], the “K-562 TGI” value was greater than 10 µM. In test [5], the “THP-1 TGI” value was 3.92 µM. Also, the pIC50 in test [8] is 4.46; in test [2], 5.71. Further, in test [7], the “MV-4-11 TGI” value amounted to 1.12 µM.
Consider `COc1ncccc1-c1nc2c([nH]1)[C@@H](c1ccc(Cl)cc1)N(c1cc(C)c(=O)n(C)c1)C2=O` [Example 156, (R)-6-(4-chlorophenyl)-5-(1,5-dimethyl-6-oxo-1,6-dihydropyridin-3-yl)-2-(2-methoxypyridin-3-yl)-5,6-dihydropyrrolo[3,4-d]imidazol-4(1H)-one], for which the pIC50 was 7.53 in test [3], 7.49 in test [6], 7.60 in test [1] and 6.59 in test [8]. Also, the GI50 was 0.122 µM in test [4], 0.0433 µM in test [5] and 0.0254 µM in test [7]. Also, in test [4], the “K-562 TGI” value is greater than 10 µM. Also, in test [5], the “THP-1 TGI” value is 0.099 µM. Further, the “MV-4-11 TGI” value in test [7] was determined as 0.05135 µM.
Turning to `COc1ncccc1-c1nc2c(n1C(C)C)[C@@H](c1ccc(Cl)cc1)N(c1cc(C)c3nnn(C)c3n1)C2=O` [Example 158, (R)-6-(4-chlorophenyl)-5-(3,7-dimethyl-3H-[1,2,3]triazolo[4,5-b]pyridin-5-yl)-1-isopropyl-2-(2-methoxypyridin-3-yl)-5,6-dihydropyrrolo[3,4-d]imidazol-4(1H)-one], the pIC50 in test [3] was greater than 7.96; in test [6], 7.80; in test [1], greater than 7.96; in test [8] it was less than 4.43. Moreover, the GI50 in test [4] was 0.00873 µM; in test [5], 0.002 µM; in test [7] it was 0.00164 µM. Moreover, in test [4], the “K-562 TGI” value is greater than 10 µM. Moreover, in test [5], the “THP-1 TGI” value amounted to 0.005065 µM. In addition, in test [7], the “MV-4-11 TGI” value came to 0.00329 µM.
For the compound `COc1ncc(-c2nc3c(n2C(C)C)[C@@H](c2ccc(Cl)cc2)N(c2cc(C)c4nnc(C(F)F)n4c2)C3=O)c(OC)n1` [Example 159, (R)-6-(4-chlorophenyl)-5-(3-(difluoromethyl)-8-methyl-[1,2,4]triazolo[4,3-a]pyridin-6-yl)-2-(2,4-dimethoxypyrimidin-5-yl)-1-isopropyl-5,6-dihydropyrrolo[3,4-d]imidazol-4(1H)-one], the pIC50 in test [3] was 7.92; in test [6] it was 7.80; in test [1], greater than 7.96; in test [8] it was 4.90. Moreover, the GI50 came out at 0.0405 µM in test [4], 0.0121 µM in test [5] and 0.00586 µM in test [7]. The “K-562 TGI” value in test [4] is greater than 10 µM. Also, in test [5], the “THP-1 TGI” value stood at 0.0315 µM. The “MV-4-11 TGI” value in test [7] was 0.0156 µM.
Regarding `Cc1cc(N2C(=O)c3nc(C4=CCOCC4)n(C(C)C)c3C2c2ccc(Cl)cc2)nn2c(C(F)F)nnc12` (stereo not shown) [Example 161, 6-(4-chlorophenyl)-5-(3-(difluoromethyl)-8-methyl-[1,2,4]triazolo[4,3-b]pyridazin-6-yl)-2-(3,6-dihydro-2H-pyran-4-yl)-1-isopropyl-5,6-dihydropyrrolo[3,4-d]imidazol-4(1H)-one], the pIC50 in test [3] is 7.80; in test [6], 7.52; in test [1] it was 7.82; in test [8], less than 4.43. Also, the results for the GI50 in test [4], in test [5] and in test [7] were 0.0752 µM, 0.00609 µM and 0.00599 µM, respectively. The “K-562 TGI” value in test [4] is greater than 10 µM. Moreover, the “THP-1 TGI” value in test [5] was 0.01365 µM. The “MV-4-11 TGI” value in test [7] was 0.01365 µM.
As for `Cc1cc(N2C(=O)c3nc(C4=CCOCC4)[nH]c3[C@H]2c2ccc(Cl)cc2)cn2c(C)nnc12` [Example 167, (R)-6-(4-chlorophenyl)-2-(3,6-dihydro-2H-pyran-4-yl)-5-(3,8-dimethyl-[1,2,4]triazolo[4,3-a]pyridin-6-yl)-5,6-dihydropyrrolo[3,4-d]imidazol-4(1H)-one], the pIC50 in test [3] is 7.28; in test [6], 7.20; in test [1], 7.46; in test [8] it was 5.78. Also, the GI50 worked out at 0.537 µM in test [4], 0.103 µM in test [5] and 0.0336 µM in test [7]. In addition, the “K-562 TGI” value in test [4] is greater than 10 µM. Besides, in test [5], the “THP-1 TGI” value was 0.1885 µM. Besides, in test [7], the “MV-4-11 TGI” value amounted to 0.05785 µM.
For the compound `COc1ncccc1-c1nc2c(n1C(C)C)[C@@H](c1ccc(Cl)cc1)N(c1cc(C)c3nnc(C(F)F)n3n1)C2=O` [Example 168, (R)-6-(4-chlorophenyl)-5-(3-(difluoromethyl)-8-methyl-[1,2,4]triazolo[4,3-b]pyridazin-6-yl)-1-isopropyl-2-(2-methoxypyridin-3-yl)-5,6-dihydropyrrolo[3,4-d]imidazol-4(1H)-one], the pIC50 was greater than 7.96 in test [3], 7.77 in test [6], greater than 7.96 in test [1] and less than 4.43 in test [8]. Besides, the GI50 amounted to 0.0308 µM in test [4], 0.00565 µM in test [5] and 0.00299 µM in test [7]. In addition, the “K-562 TGI” value in test [4] was greater than 10 µM. Also, the “THP-1 TGI” value in test [5] was 0.0189 µM. For the same compound, the “MV-4-11 TGI” value in test [7] came out at 0.0077 µM.
`Cc1cc(N2C(=O)c3nc(C4CCN(C)CC4)n(C(C)C)c3C2c2ccc(Cl)cc2)nn2c(C)nnc12` (stereo not shown) [Example 169, 6-(4-chlorophenyl)-5-(3,8-dimethyl-[1,2,4]triazolo[4,3-b]pyridazin-6-yl)-1-isopropyl-2-(1-methylpiperidin-4-yl)-5,6-dihydropyrrolo[3,4-d]imidazol-4(1H)-one]: the pIC50 in test [3] is 7.48; in test [6], 7.60; in test [1], 7.72; in test [8], less than 4.43. Also, the GI50 in test [4] was 0.0559 µM; in test [5], 0.0115 µM; in test [7] it was 0.00194 µM. In addition, the “K-562 TGI” value in test [4] is greater than 10 µM. In addition, the “THP-1 TGI” value in test [5] came to 0.03295 µM. Further, in test [7], the “MV-4-11 TGI” value is 0.005325 µM.
